Assay results: patent publication US9617267B2, “Compounds and methods for kinase modulation, and indications therefor” (Plexxikon Inc., priority 2009, dated 2017)

Key:
B-Raf V600E = B-Raf V600E (Homo sapiens (Human), UniProt P15056, V600E); assay: B-Raf V600E kinase activity biochemical assay (AlphaScreen, biotin-MEK1 phosphorylation); settings: for IC50: B-Raf V600E; for Biochemical activity ratio V600E/C: ratio of IC50 B-Raf V600E / c-Raf-1
Protocol: (§1) Compounds to be tested are diluted in dimethyl sulfoxide to a concentration of 0.1 mM. These are serially diluted 15 μL into 30 μL of dimethyl sulfoxide seven times in 96 well plates for a total of 8 dilution points, and for each dilution point 1 μL is added to a well of an assay plate. […] The reaction is started with addition of 10 μL of 200 μM ATP (i.e. final 100 μM ATP). After incubation of the kinase reaction for 45 minutes at room temperature, 5 μL/well of Stop Solution is added (25 mM Hepes pH 7.5, 100 mM EDTA, 0.01% BSA with donor beads (Streptavidin coated beads, Perkin Elmer), acceptor beads (Protein A coated, Perkin Elmer), and anti phosphor MEK1/2 antibody (CellSignal), each at final concentration 10 μg/mL). The plates are incubated for 3 hours at room temperature and read on Envision reader (Perkin Elmer). […] The signal vs. compound concentration is used to determine the IC50.

B-Raf [1] = assay: B-Raf kinase activity biochemical assay (AlphaScreen, biotin-MEK1 phosphorylation); settings: for Biochemical activity ratio B/V600E: ratio of IC50 B-Raf / B-Raf V600E; for Biochemical activity ratio B/C: ratio of IC50 B-Raf / c-Raf-1
Protocol: as §1

B-Raf [2] = molecular target: B-Raf (Homo sapiens (Human), UniProt P15056); assay: as above; settings: B-Raf
Protocol: as §1

c-Raf-1 = c-Raf-1 (Homo sapiens, UniProt P04049); assay: c-Raf-1 kinase activity biochemical assay (AlphaScreen, biotin-MEK1 phosphorylation)
Protocol: as §1

CYP2C19 = CYP2C19 (Homo sapiens (Human), UniProt P33261); assay: CYP enzyme inhibition, fluorescent substrate (CEC); settings: read-out: Cyp IC50 2C19; CYP2C19, substrate CEC
Protocol: CYP (Cytochrome P450) enzymes are the major drug metabolizing enzymes present in the liver. The inhibition of CYP enzyme activity (IC50) for each of CYP1A2, CYP2C19, CYP2C9, CYP2D6, CYP3A4(BFC) and CYP3A4(BQ) is determined for compounds, where inhibition of metabolism of a known substrate leads to a decrease in the fluorescence of the metabolized product. The fluorescence of the product is monitored as a function of compound concentration.
Compounds are dissolved in dimethyl sulfoxide to a concentration of 100 mM. These are diluted 1 μL into 82 μL of acetonitrile. […] These are then serially diluted 1:1 (160 μL to 160 μL co-factor mix) for a total of 10 points. A 10 μL aliquot of this final mixture is dispensed into 384 well assay plates and incubated for 10 minutes at 37° C. […] Assay plates are incubated at 37° C. […] The signal versus compound concentration is used to determine the IC50. The enzymes and substrates for this assay are obtained from BD Biosciences.

[3] = Relative solubility by turbidity threshold concentration in aqueous buffers (pH 1.5, 4.5, 6.8, 7.4); type: physicochemical; settings: for turbidity threshold (L, M, H) 1.4: pH 1.4 [sic] (method: SGF pH 1.5); for turbidity threshold (L, M, H) 4.5: pH 4.5 (SIF); for turbidity threshold (L, M, H) 6.8: pH 6.8 (SIF); for turbidity threshold (L, M, H) 7.4: pH 7.4 (HEPES)
Protocol: As an indication of relative solubility, the turbidity of compounds in aqueous solutions is assessed. To assess possible compound properties in different physiological compartments, such as stomach, intestine, and blood, a series of aqueous buffers with varying pH is used. Thus each compound is diluted into four different physiologically relevant buffers and solution turbidity is measured by spectrophotometry.
Compounds are dissolved at a concentration of 25 mM in dimethyl sulfoxide, then serially diluted 1:1 into a 96 well plate, diluting 10 times in pure dimethyl sulfoxide, with the final well of each row a dimethyl sulfoxide blank. In an assay plate, 99 μL of appropriate buffer is added to each well, and 1 μL of each sample dilution is added to the buffer, achieving a range of final total concentrations in aqueous solutions having different pH. The buffers used are Simulated Gastric Fluid (SGF-pH 1.5) 0.5M NaCl, pH 1.5; Simulated Intestinal fluid (SIF-pH 4.5 and pH 6.8) 0.05M NaH2PO4, pH 4.5 and 6.8; and Hepes Buffer (HEPES-pH 7.4) 10 mM HEPES, 150 mM NaCl, pH 7.4. Control compounds pyrene, estriol and propranolol HCl are also assessed. Plates are spun and then mixed for 1 minute, and the absorbance is read using a Tecan Safire II to read wavelengths in the visible range (490, 535, and 650 nm) at four locations per well, reflecting the degree of turbidity present. The average optical density for each wavelength in each well is graphed vs. compound concentration, and the concentration at which the curve crosses a threshold O.D. of 0.01 for each wavelength is reported as the endpoint turbidity assay result. The average of the three wavelengths is used to compare turbidity of compounds. Compounds are considered to have low solubility if the threshold concentration is <31.3 μM, moderate solubility if the threshold concentration is 31.3 μM to 250 μM, and high solubility if the threshold concentration is >250 μm.
The following table indicates the relative solubility (L=low, M=moderate, H=high) based on turbidity threshold concentration at each pH for exemplary compounds according to the invention as indicated: […]

Chain of B-Raf (Homo sapiens (Human), UniProt P15056) (P15056 whole entry): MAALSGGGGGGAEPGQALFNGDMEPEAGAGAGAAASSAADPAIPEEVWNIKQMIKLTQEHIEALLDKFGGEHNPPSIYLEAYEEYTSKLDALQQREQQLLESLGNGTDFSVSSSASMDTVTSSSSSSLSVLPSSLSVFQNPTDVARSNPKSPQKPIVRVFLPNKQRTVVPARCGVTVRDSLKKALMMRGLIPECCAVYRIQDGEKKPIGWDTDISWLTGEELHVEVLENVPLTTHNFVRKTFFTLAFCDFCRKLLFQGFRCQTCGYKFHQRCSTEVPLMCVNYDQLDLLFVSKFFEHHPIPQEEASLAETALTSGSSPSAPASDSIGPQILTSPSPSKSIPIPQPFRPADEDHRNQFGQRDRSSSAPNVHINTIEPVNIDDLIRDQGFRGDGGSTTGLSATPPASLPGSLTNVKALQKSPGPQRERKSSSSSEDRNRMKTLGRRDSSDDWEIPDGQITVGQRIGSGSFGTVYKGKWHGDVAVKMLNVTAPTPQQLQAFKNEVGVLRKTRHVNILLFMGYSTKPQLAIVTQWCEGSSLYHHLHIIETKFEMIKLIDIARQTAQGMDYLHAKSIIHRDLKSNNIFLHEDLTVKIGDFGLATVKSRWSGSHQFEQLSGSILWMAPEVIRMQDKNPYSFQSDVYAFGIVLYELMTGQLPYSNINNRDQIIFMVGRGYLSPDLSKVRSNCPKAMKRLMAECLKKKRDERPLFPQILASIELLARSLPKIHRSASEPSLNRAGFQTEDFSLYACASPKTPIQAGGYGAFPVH
Chain of B-Raf V600E (P15056 whole entry V600E): as the sequence (P15056 whole entry) above, with V600E counted along it
Chain of c-Raf-1 (P04049 whole entry, looked up): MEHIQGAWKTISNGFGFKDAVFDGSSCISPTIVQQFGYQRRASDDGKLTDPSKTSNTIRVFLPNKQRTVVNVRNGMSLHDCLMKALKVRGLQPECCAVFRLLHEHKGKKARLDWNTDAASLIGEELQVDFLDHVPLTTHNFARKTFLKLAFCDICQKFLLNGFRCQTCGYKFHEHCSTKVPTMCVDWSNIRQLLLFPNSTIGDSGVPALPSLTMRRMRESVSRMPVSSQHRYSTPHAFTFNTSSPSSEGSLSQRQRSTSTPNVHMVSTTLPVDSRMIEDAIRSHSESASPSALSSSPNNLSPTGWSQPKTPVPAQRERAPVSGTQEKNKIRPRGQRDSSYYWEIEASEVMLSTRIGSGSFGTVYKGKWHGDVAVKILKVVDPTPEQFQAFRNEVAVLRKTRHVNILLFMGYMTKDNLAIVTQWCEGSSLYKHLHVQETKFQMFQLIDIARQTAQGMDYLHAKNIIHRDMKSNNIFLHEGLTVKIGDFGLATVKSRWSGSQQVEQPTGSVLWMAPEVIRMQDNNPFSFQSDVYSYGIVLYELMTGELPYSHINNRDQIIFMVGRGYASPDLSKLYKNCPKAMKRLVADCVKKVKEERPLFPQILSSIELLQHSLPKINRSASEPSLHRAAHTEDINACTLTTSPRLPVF
Chain of CYP2C19 (P33261 whole entry): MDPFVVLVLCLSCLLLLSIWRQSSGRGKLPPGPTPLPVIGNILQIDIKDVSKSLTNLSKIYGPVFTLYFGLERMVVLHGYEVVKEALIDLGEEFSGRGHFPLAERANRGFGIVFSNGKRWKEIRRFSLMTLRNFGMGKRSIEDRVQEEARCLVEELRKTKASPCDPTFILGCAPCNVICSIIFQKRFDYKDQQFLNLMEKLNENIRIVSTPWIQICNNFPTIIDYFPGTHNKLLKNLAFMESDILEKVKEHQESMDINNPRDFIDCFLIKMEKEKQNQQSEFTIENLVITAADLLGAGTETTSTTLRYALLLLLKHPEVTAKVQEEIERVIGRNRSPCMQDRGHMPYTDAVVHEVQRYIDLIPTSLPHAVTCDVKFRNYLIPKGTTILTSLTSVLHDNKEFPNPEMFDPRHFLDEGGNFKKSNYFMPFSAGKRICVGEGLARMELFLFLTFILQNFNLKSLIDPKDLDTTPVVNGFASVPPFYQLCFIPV

Row | SMILES | IC50 (B-Raf V600E) [µM] | Biochemical activity ratio V600E/C (B-Raf V600E) | Biochemical activity ratio B/V600E (B-Raf [1]) | Biochemical activity ratio B/C (B-Raf [1]) | IC50 (B-Raf [2]) [µM] | IC50 (c-Raf-1) [µM] | IC50 (CYP2C19) [nM] | turbidity threshold (L, M, H) 1.4 [3] | turbidity threshold (L, M, H) 4.5 [3] | turbidity threshold (L, M, H) 6.8 [3] | turbidity threshold (L, M, H) 7.4 [3]
1 | O=C(c1c(F)ccc(NS(=O)(=O)c2ccc(C(F)(F)F)cc2)c1F)c1c[nH]c2ncnc(N3CCOCC3)c12 [P-1017, N-[2,4-Difluoro-3-(4-morpholin-4-yl-7H-pyrrolo[2,3-d]pyrimidine-5-carbonyl)-phenyl]-4-trifluoromethyl-benzenesulfonamide] | > 0.1 | >10 | 0.1-10 | 0.1-10 | > 0.1 | > 0.1 |  |  |  |  | 
2 | COc1ccc(S(=O)(=O)Nc2ccc(F)c(C(=O)c3c[nH]c4ncnc(OC)c34)c2F)cn1 [P-1018, 6-Methoxy-pyridine-3-sulfonic acid [2,4-difluoro-3-(4-methoxy-7H-pyrrolo[2,3-d]pyrimidine-5-carbonyl)-phenyl]-amide] | > 0.1 | 0.1-10 | >10 | >10 | > 0.1 | > 0.1 |  |  |  |  | 
3 | CCc1ccc(S(=O)(=O)Nc2ccc(F)c(C(=O)c3c[nH]c4ncnc(C)c34)c2F)cc1 [P-1019, N-[2,4-Difluoro-3-(4-methyl-7H-pyrrolo[2,3-d]pyrimidine-5-carbonyl)-phenyl]-4-ethyl-benzenesulfonamide] | > 0.1 | 0.1-10 | 0.1-10 | 0.1-10 | > 0.1 | > 0.1 |  |  |  |  | 
4 | O=C(c1c(F)ccc(NS(=O)(=O)c2ccc(C(F)(F)F)cc2)c1F)c1c[nH]c2ncnc(OC3CCOCC3)c12 [P-1021, N-{2,4-Difluoro-3-[4-(tetrahydro-pyran-4-yloxy)-7H-pyrrolo[2,3-d]pyrimidine-5-carbonyl]-phenyl}-4-trifluoromethyl-benzenesulfonamide] | > 0.1 | >10 | 0.1-10 | >10 | > 0.1 | < 0.1 |  |  |  |  | 
5 | CCCS(=O)(=O)Nc1ccc(F)c(C(=O)c2c[nH]c3ncnc(O)c23)c1F [P-1022, Propane-1-sulfonic acid [2,4-difluoro-3-(4-hydroxy-7H-pyrrolo[2,3-d]pyrimidine-5-carbonyl)-phenyl]-amide] | > 0.1 | 0.1-10 | 0.1-10 | 0.1-10 | > 0.1 | < 0.1 |  |  |  |  | 
6 | CCCS(=O)(=O)Nc1ccc(F)c(C(=O)c2c[nH]c3nccc(NC4CCOCC4)c23)c1F [P-2013, Propane-1-sulfonic acid {2,4-difluoro-3-[4-(tetrahydro-pyran-4-ylamino)-1H-pyrrolo[2,3-b]pyridine-3-carbonyl]-phenyl}-amide] | < 0.1 |  |  |  |  | < 0.1 | > 10000 | H (high solubility if the threshold concentration is >250 μm) | H (high solubility if the threshold concentration is >250 μm) | H (high solubility if the threshold concentration is >250 μm) | H (high solubility if the threshold concentration is >250 μm)
7 | CCCS(=O)(=O)Nc1ccc(F)c(C(=O)c2c[nH]c3nccc(C(F)(F)F)c23)c1F [P-2015, Propane-1-sulfonic acid [2,4-difluoro-3-(4-trifluoromethyl-1H-pyrrolo[2,3-b]pyridine-3-carbonyl)-phenyl]-amide] |  |  |  |  |  | < 0.1 | > 10000 | M (moderate solubility if the threshold concentration is 31.3 μM to 250 μM) | M (moderate solubility if the threshold concentration is 31.3 μM to 250 μM) | M (moderate solubility if the threshold concentration is 31.3 μM to 250 μM) | M (moderate solubility if the threshold concentration is 31.3 μM to 250 μM)
